This is an account of results in patent US10919896B2, “Preparation and uses of pyrimidinone derivatives” (Cancer Research Technology Limited, priority 2016, dated 2021).

The target of assay [1] is Cdc7/Dbf4 (Homo sapiens, UniProt O00311). Kind of assay: Cdc7 Biochemical Assay Method 3: Cdc7/Dbf4 Enzyme TR-FRET Assay measuring pS40MCM2. To be noted: 1 μM ATP, read-out: Biochemical Method 3 (pIC50) (converted). The method, then: This protocol describes a method for assaying a compounds' ability to inhibit Cdc7 activity by measuring pS40MCM2 levels in a Cdc7/Dbf4 Enzyme TR-FRET Assay.
2.5 nM Cdc7/Dbf4 was incubated with 100 nM of biotin-labelled peptide 35-TDALTS(pS)PGRDLP in the presence of 1 μM ATP at 25° C. for 120 minutes. The phosphorylation of the peptide was detected using TR-FRET. Anti-Mcm2 (pS40) antibody, Terbium anti-rabbit secondary antibody and Streptavidin-Alexa Fluor488 form the detection system.

The target of assay [2] is Cdc7/ASK (Homo sapiens, UniProt O00311). Kind of assay: Cdc7 Biochemical Assay Method 1: 384 well ELISA, whole protein substrate MCM2, antibody against Phospho MCM2 (S53). To be noted: 2 μM ATP, read-out: Biochemical Method 1 (pIC50) (converted). The arrangement: purchased. In a few lines: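 MCM2 protein substrate was coated on nickel-chelate plates, then Cdc7/ASK was added with 2 μM ATP in 50 mM Tris-HCl pH 8.5, 10 mM MgCl2, 1 mM DTT, 4% DMSO, 90 min at room temperature. Phospho-MCM2 (S53) was detected by ELISA with an AP secondary and PNPP absorbance. IC50 was derived from % inhibition versus no-compound and no-enzyme controls.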
For orientation: In an ELISA, binding on a coated surface is turned into a signal by an enzyme label.

Sequence of Cdc7/Dbf4 (O00311 whole entry): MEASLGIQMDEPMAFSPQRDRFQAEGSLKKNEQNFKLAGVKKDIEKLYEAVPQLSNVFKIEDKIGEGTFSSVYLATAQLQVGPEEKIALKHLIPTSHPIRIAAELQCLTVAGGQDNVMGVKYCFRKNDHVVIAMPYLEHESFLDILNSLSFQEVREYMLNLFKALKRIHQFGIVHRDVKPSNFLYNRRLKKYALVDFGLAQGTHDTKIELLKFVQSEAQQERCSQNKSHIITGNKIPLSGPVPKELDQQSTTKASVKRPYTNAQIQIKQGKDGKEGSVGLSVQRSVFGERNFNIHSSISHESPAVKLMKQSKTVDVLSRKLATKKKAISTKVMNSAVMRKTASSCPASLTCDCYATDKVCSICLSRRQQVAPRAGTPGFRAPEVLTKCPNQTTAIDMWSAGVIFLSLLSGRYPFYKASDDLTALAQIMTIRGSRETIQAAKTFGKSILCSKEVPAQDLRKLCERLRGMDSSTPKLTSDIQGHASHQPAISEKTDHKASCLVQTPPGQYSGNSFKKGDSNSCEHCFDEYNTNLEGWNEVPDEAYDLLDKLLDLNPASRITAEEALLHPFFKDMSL
Sequence of Cdc7/Dbf4 (Q9UBU7 whole entry partner): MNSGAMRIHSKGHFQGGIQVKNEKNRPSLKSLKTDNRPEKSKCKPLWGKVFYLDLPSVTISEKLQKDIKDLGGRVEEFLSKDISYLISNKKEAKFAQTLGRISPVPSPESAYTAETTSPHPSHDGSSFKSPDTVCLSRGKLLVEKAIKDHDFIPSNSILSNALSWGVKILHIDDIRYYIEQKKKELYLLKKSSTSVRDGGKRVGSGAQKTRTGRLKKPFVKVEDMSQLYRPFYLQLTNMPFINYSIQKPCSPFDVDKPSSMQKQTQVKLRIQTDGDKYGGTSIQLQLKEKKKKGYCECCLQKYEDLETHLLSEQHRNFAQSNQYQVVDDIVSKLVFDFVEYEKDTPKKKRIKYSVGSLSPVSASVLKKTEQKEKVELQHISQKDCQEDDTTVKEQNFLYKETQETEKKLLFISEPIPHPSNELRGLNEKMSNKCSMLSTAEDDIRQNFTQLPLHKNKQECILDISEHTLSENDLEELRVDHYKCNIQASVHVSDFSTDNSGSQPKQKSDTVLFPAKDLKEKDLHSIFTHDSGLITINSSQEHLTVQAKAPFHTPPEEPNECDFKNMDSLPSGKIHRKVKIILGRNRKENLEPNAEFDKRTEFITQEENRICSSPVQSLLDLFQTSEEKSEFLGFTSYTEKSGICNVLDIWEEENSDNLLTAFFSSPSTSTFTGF
Sequence of Cdc7/ASK (O00311 whole entry): as the sequence (O00311 whole entry) above
Sequence of Cdc7/ASK (Q9UBU7 whole entry partner): as the sequence (Q9UBU7 whole entry partner) above

Take `O=c1[nH]c(-c2ccnc(F)c2)nc(C2CCOCC2)c1Cl` [Compound 13, 5-chloro-2-(2-fluoro-pyridin-4-yl)-6-(tetrahydro-pyran-4-yl)-3H-pyrimidin-4-one]: the IC50 is 0.759 nM in assay [1] and 1.23 nM in assay [2]. On to `O=c1[nH]c(-c2ccnc(F)c2)nc(N2CCC3(CC2)OCCO3)c1Cl` [Compound 236], for which, in assay [1], the IC50 is 14.5 nM.

For `O=c1[nH]c(-c2ccnc(F)c2)nc(N2C[C@H]3NCCO[C@@H]3C2)c1Cl` [Compound 237], the IC50 in assay [1] was 7.94 nM. For the molecule `O=c1[nH]c(-c2ccnc(F)c2)nc(N2CCC3(CCCO3)CC2)c1Cl` [Compound 238], in assay [1], the IC50 is 5.25 nM. Same read-out and setting: the figure for `NC(=O)N1CCN(c2nc(-c3ccnc(F)c3)[nH]c(=O)c2Cl)CC1` [Compound 239] is 1.1 nM; for `CN(C)C(=O)N1CCN(c2nc(-c3ccnc(F)c3)[nH]c(=O)c2Cl)CC1` [Compound 240] it is 3.72 nM; for `O=c1[nH]c(-c2ccnc(F)c2)nc(N2CCC3(CCCN3)CC2)c1Cl` [Compound 241] it is 2.19 nM.

Take `O=c1[nH]c(-c2ccnc(F)c2)nc(N2CCC3(CCNC3)CC2)c1Cl` [Compound 242]: in assay [1], the IC50 is 1.15 nM. In the case of `O=c1[nH]c(-c2ccnc(F)c2)nc(N2CCC3(CNC3)C2)c1Cl` [Compound 245], in assay [1], the IC50 was 2.04 nM. The same measure, in the same setting: the figure for `O=c1[nH]c(-c2ccnc(F)c2)nc(N2CCCC2CN2CCOCC2)c1Cl` (centres unmarked) [Compound 246] is 1000 nM; for `NC(=O)[C@H]1CCCN1c1nc(-c2ccnc(F)c2)[nH]c(=O)c1Cl` [Compound 247] it is 4.57 nM.

In the case of `NC(=O)[C@@H]1CCCN1c1nc(-c2ccnc(F)c2)[nH]c(=O)c1Cl` [Compound 248], the IC50 in assay [1] was 42.7 nM. Regarding `NC(=O)[C@@H]1CCN(c2nc(-c3ccnc(F)c3)[nH]c(=O)c2Cl)C1` [Compound 249], the IC50 in assay [1] was 9.33 nM. Same read-out and setting: under `O=c1[nH]c(-c2ccnc(F)c2)nc(N2CCCC3(CCCN3)C2)c1Cl` (centres unmarked) [Compound 250] stands 9.77 nM; under `NC(=O)[C@H]1CCN(c2nc(-c3ccnc(F)c3)[nH]c(=O)c2Cl)C1` [Compound 251], 4.07 nM. As for `CNC(=O)C1CCCN(c2nc(-c3ccnc(F)c3)[nH]c(=O)c2Cl)C1` (centres unmarked) [Compound 253], the IC50 in assay [1] was 7.41 nM. As to `CC(C)C(=O)NC1CCN(c2nc(-c3ccnc(F)c3)[nH]c(=O)c2Cl)CC1` [Compound 254], the IC50 in assay [1] is 2.4 nM.

With `CC(C)NC(=O)C1CCN(c2nc(-c3ccnc(F)c3)[nH]c(=O)c2Cl)CC1` [Compound 255], the IC50 in assay [1] was 7.08 nM. On the same count and under the same terms, the figure for `O=C(NCCO)C1CCN(c2nc(-c3ccnc(F)c3)[nH]c(=O)c2Cl)CC1` [Compound 256] is 2 nM.

For `CCNC(=O)C1CCN(c2nc(-c3ccnc(F)c3)[nH]c(=O)c2Cl)CC1` [Compound 257], the IC50 in assay [1] is 6.03 nM. In the case of `O=c1[nH]c(-c2ccnc(F)c2)nc(N2CCCC23CCNC3)c1Cl` (centres unmarked) [Compound 259], the IC50 in assay [1] is 2.82 nM. Regarding `O=c1[nH]c(-c2ccnc(F)c2)nc(N2CCCC23CCNCC3)c1Cl` [Compound 263], the IC50 in assay [1] was 11 nM. On the same count and under the same terms, the figure for `O=c1[nH]c(-c2ccnc(F)c2)nc(N2CCCC3NCCCC32)c1Cl` (centres unmarked) [Compound 264] is 1.58 nM. On to `CN1CCN(C2CCN(c3nc(-c4ccnc(F)c4)[nH]c(=O)c3Cl)CC2)CC1` [Compound 265], for which the IC50 in assay [1] is 4.07 nM.

With `CCN(c1nc(-c2ccnc(F)c2)[nH]c(=O)c1Cl)C1CCOCC1` [Compound 266], the IC50 in assay [1] was 36.3 nM.

As to `CN(c1nc(-c2ccnc(F)c2)[nH]c(=O)c1Cl)[C@H]1CCCNC1` [Compound 267], the IC50 in assay [1] is 3.89 nM. Same read-out and setting: under `CN(c1nc(-c2ccnc(F)c2)[nH]c(=O)c1Cl)[C@@H]1CCCNC1` [Compound 268] stands 4.27 nM. The same measure, in the same setting: the figure for `O=c1[nH]c(-c2ccnc(F)c2)nc(N2CCn3cnnc3C2)c1Cl` [Compound 269] is 0.525 nM.

With `CC(C)c1nnc2n1CCN(c1nc(-c3ccnc(F)c3)[nH]c(=O)c1Cl)C2` [Compound 270], the IC50 in assay [1] was 20.9 nM. Still for that read-out and setting: under `CC(=O)N[C@H]1CCN(c2nc(-c3ccnc(F)c3)[nH]c(=O)c2Cl)C1` [Compound 274] stands 5.01 nM; under `O=c1[nH]c(-c2ccnc(F)c2)nc(N2CCCC2)c1Cl` [Compound 276], 6.31 nM; under `C[C@H]1CCCN1c1nc(-c2ccnc(F)c2)[nH]c(=O)c1Cl` [Compound 278], 14.8 nM.

Regarding `C[C@H]1CCCCN1c1nc(-c2ccnc(F)c2)[nH]c(=O)c1Cl` [Compound 280], the IC50 in assay [1] is 0.871 nM. Take `CO[C@H]1CCCN(c2nc(-c3ccnc(F)c3)[nH]c(=O)c2Cl)C1` [Compound 283]: the IC50 in assay [1] is 5.37 nM. Still for that read-out and setting: the figure for `O=c1[nH]c(-c2ccnc(F)c2)nc(N2CCOC(COc3ccccc3)C2)c1Cl` (centres unmarked) [Compound 285] is 9.12 nM. On the same count and under the same terms, under `Nc1ccc(Oc2nc(-c3ccnc(F)c3)[nH]c(=O)c2Cl)cc1` [Compound 287] stands 19.1 nM; under `O=C1CCN(c2nc(-c3ccnc(F)c3)[nH]c(=O)c2Cl)CCN1` [Compound 288], 0.933 nM; under `CN(Cc1ccccc1)c1nc(-c2ccnc(F)c2)[nH]c(=O)c1Cl` [Compound 289], 95.5 nM. Regarding `O=c1[nH]c(-c2ccnc(F)c2)nc(NCc2ccccc2)c1Cl` [Compound 290], the IC50 in assay [1] was 355 nM. On the same count and under the same terms, under `O=c1[nH]c(-c2ccnc(F)c2)nc(N2CCn3c(nnc3C(F)(F)F)C2)c1Cl` [Compound 291] stands 4.17 nM; under `O=c1[nH]c(-c2ccnc(F)c2)nc(N2CCOC3(CCOCC3)C2)c1Cl` [Compound 292], 11.5 nM; under `O=c1[nH]c(-c2ccnc(F)c2)nc(OCc2ccccc2)c1Cl` [Compound 294], 182 nM. In the case of `O=c1[nH]c(-c2ccnc(F)c2)nc(N2CCN(c3nc[nH]n3)CC2)c1Cl` [Compound 295], the IC50 in assay [1] is 0.891 nM. Still for that read-out and setting: the figure for `O=c1[nH]c(-c2ccnc(F)c2)nc(N2CCCN(CC(F)(F)F)CC2)c1Cl` [Compound 299] is 6.46 nM; for `CC1CN(C)CCCN1c1nc(-c2ccnc(F)c2)[nH]c(=O)c1Cl` (centres unmarked) [Compound 302] it is 25.1 nM.

Turning to `O=c1[nH]c(-c2ccnc(F)c2)nc(OC2CCOCC2)c1Cl` [Compound 305], the IC50 in assay [1] was 2 nM. The same measure, in the same setting: the figure for `O=c1[nH]c(-c2ccnc(F)c2)nc(N2CCN[C@H](C3(O)CC3)C2)c1Cl` [Compound 311] is 2.09 nM; for `N[C@@H]1CCN(c2nc(-c3ccnc(F)c3)[nH]c(=O)c2Cl)C1` [Compound 324] it is 14.5 nM; for `NC1CN(c2nc(-c3ccnc(F)c3)[nH]c(=O)c2Cl)C1` [Compound 325] it is 11.2 nM. For the molecule `CC(C)[C@@H]1CN(c2nc(-c3ccnc(F)c3)[nH]c(=O)c2Cl)CCN1` [Compound 327], the IC50 in assay [1] is 6.61 nM. Consider `O=c1[nH]c(-c2ccnc(F)c2)nc(OC2CCNCC2)c1Cl` [Compound 329], for which, in assay [1], the IC50 was 0.617 nM. As for `O=c1[nH]c(-c2ccnc(F)c2)nc(O[C@@H]2CCCNC2)c1Cl` [Compound 330], the IC50 in assay [1] was 0.955 nM. For `O=c1[nH]c(-c2ccnc(F)c2)nc(O[C@H]2CCCNC2)c1Cl` [Compound 331], the IC50 in assay [1] was 9.55 nM. With `O=c1[nH]c(-c2ccnc(F)c2)nc(N2CCO[C@H]3CCCC[C@@H]32)c1Cl` [Compound 332], the IC50 in assay [1] is 6.31 nM. For the molecule `CC[C@H]1COCCN1c1nc(-c2ccnc(F)c2)[nH]c(=O)c1Cl` [Compound 336], the IC50 in assay [1] is 1.82 nM. On the same count and under the same terms, under `C[C@@H]1COC[C@@H](C)N1c1nc(-c2ccnc(F)c2)[nH]c(=O)c1Cl` [Compound 341] stands 6.61 nM; under `C[C@H]1COC[C@H](C)N1c1nc(-c2ccnc(F)c2)[nH]c(=O)c1Cl` [Compound 342], 129 nM.

Take `C[C@@H]1COC[C@H](C)N1c1nc(-c2ccnc(F)c2)[nH]c(=O)c1Cl` [Compound 343]: in assay [1], the IC50 was 6.76 nM.

On to `N#C[C@H]1CNCCN1c1nc(-c2ccnc(F)c2)[nH]c(=O)c1Cl` [Compound 344], for which, in assay [1], the IC50 was 2.75 nM. The same measure, in the same setting: under `O=c1[nH]c(-c2ccnc(F)c2)nc(N2CCn3cncc3C2)c1Cl` [Compound 346] stands 1.05 nM; under `CC(C)C[C@H]1CN2CCC[C@H]2CN1c1nc(-c2ccnc(F)c2)[nH]c(=O)c1Cl` [Compound 349], 83.2 nM; under `O=c1[nH]c(-c2ccnc(F)c2)nc(N2CCn3ccnc3C2)c1Cl` [Compound 353], 1.62 nM. In the case of `O=c1[nH]c(-c2ccnc(F)c2)nc(N2CCc3nncn3CC2)c1Cl` [Compound 354], in assay [1], the IC50 was 2 nM. The same measure, in the same setting: the figure for `CC1c2nnc(C(F)(F)F)n2C(C)CN1c1nc(-c2ccnc(F)c2)[nH]c(=O)c1Cl` (centres unmarked) [Compound 356] is 10 nM. Same read-out and setting: under `O=c1[nH]c(-c2ccnc(F)c2)nc(CN2CCOCC2)c1Cl` [Compound 397, 5-chloro-2-(2-fluoro-4-pyridyl)-4-(morpholinomethyl)-1H-pyrimidin-6-one] stands 219 nM. Still for that read-out and setting: under `O=c1[nH]c(-c2ccnc(F)c2)nc(CN2CCNCC2)c1Cl` [Compound 398] stands 295 nM; under `NC(=O)CN1CCN(c2nc(-c3ccnc(F)c3)[nH]c(=O)c2Cl)CC(F)(F)C1` [Compound 414, 2-[4-[5-chloro-2-(2-fluoro-4-pyridyl)-6-oxo-1H-pyrimidin-4-yl]-6,6-difluoro-1,4-diazepan-1-yl]acetamide], 0.891 nM.
